Test system: Two-spotted spider mite (Tetranychus urticae)
Assay: Acaricidal action on two-spotted spider mite (kidney bean leaf disk spray)
Assay type: in vivo
Details: 500 ppm, adult females, 25° C., two days after treatment
Description: Acaricidal Action on Two-Spotted Spider Mite (Tetranychus urticae)
Leaf disk having a diameter of 2 cm was prepared by leaves of kidney bean, and the leaf disk was placed on the wetted filter paper. Adult hens of two-spotted spider mite were inoculated on the wetted filter paper, and then 50 ml of an agrochemical dispersion, prepared by diluting a formulation containing the benzimidazole compound represented by the general formula (1) of the present invention or salt thereof as an active ingredient to adjust each of the concentrations to 500 ppm, was sprayed on turntable uniformly. After the spraying, it was allowed to stand in a thermostatic chamber at 25° C. Two days after the treatment of an agrochemical dispersion, the dead mites were counted, the corrected mortality rate was calculated according to the formula shown below, and the acaricidal efficacy was evaluated according to the criteria of Test Example 2. This test was conducted in duplicate using 10 adult hens of two-spotted spider per plot. Corrected mortality(%)=(Number of dead mites in a non-treatment plot−Number of dead mites in a treatment plot)/(Number of dead mites in a non-treatment plot)×100 [Expression 4]

CCCCCc1cn(-c2nc3ccccc3n2S(=O)(=O)CC)cn1 [Compound 1-2]
acaricidal efficacy (corrected mortality rate), activity level: D or higher

CCCCCCCCc1cn(-c2nc3ccccc3n2S(C)(=O)=O)cn1 [Compound 1-3]
acaricidal efficacy (corrected mortality rate), activity level: D or higher

CCS(=O)(=O)n1c(-n2cnc(C(C)(C)C)c2)nc2ccccc21 [Compound 1-5]
acaricidal efficacy (corrected mortality rate), activity level: D or higher

CCS(=O)(=O)n1c(-n2cnc(C#CC3CC3)c2)nc2ccccc21 [Compound 1-7]
acaricidal efficacy (corrected mortality rate), activity level: D or higher

CCS(=O)(=O)n1c(-n2cnc(CCc3ccc(C(C)(C)C)cc3)c2)nc2ccccc21 [Compound 1-10]
acaricidal efficacy (corrected mortality rate), activity level: D or higher

CCS(=O)(=O)n1c(-n2cnc(CCc3ccc(Br)cc3)c2)nc2ccccc21 [Compound 1-14]
acaricidal efficacy (corrected mortality rate), activity level: D or higher

CCS(=O)(=O)n1c(-n2cnc(COc3ccc(C(F)(F)F)cc3)c2)nc2ccccc21 [Compound 1-16]
acaricidal efficacy (corrected mortality rate), activity level: D or higher

CCS(=O)(=O)n1c(-n2cnc(COc3ccc(OC(F)(F)F)cc3)c2)nc2ccccc21 [Compound 1-17]
acaricidal efficacy (corrected mortality rate), activity level: D or higher

CCS(=O)(=O)n1c(-n2cnc(C#Cc3ccccc3)c2)nc2ccccc21 [Compound 1-18]
acaricidal efficacy (corrected mortality rate), activity level: D or higher

CCS(=O)(=O)n1c(-n2cnc(I)c2)nc2ccccc21 [Compound 1-20]
acaricidal efficacy (corrected mortality rate), activity level: D or higher

CCS(=O)(=O)n1c(-n2cnc(C(F)(F)F)c2)nc2ccccc21 [Compound 1-21]
acaricidal efficacy (corrected mortality rate), activity level: D or higher

CCS(=O)(=O)n1c(-n2cnc(C(F)(F)C(F)(F)C(F)(F)C(F)(F)C(F)(F)C(F)(F)F)c2)nc2ccccc21 [Compound 1-28]
acaricidal efficacy (corrected mortality rate), activity level: D or higher

CCS(=O)(=O)n1c(-n2cnc(C#N)c2)nc2ccccc21 [Compound 1-31]
acaricidal efficacy (corrected mortality rate), activity level: D or higher

CCS(=O)(=O)n1c(-n2cnc(C(=O)OC(C)(C)C)c2)nc2ccccc21 [Compound 1-33]
acaricidal efficacy (corrected mortality rate), activity level: D or higher

CCS(=O)(=O)n1c(-n2cnc(C(=O)OC(C)(C)c3ccccc3)c2)nc2ccccc21 [Compound 1-36]
acaricidal efficacy (corrected mortality rate), activity level: D or higher

CCCCCCCCc1cnn(-c2nc3ccccc3n2S(=O)(=O)CC)c1 [Compound 2-2]
acaricidal efficacy (corrected mortality rate), activity level: D or higher

CCS(=O)(=O)n1c(-n2cc(CCc3ccc(C(F)(F)F)cc3)cn2)nc2ccccc21 [Compound 2-4]
acaricidal efficacy (corrected mortality rate), activity level: D or higher

CCS(=O)(=O)n1c(-n2cc(CCc3ccc(F)cc3)c(C(F)(F)F)n2)nc2ccccc21 [Compound 2-5]
acaricidal efficacy (corrected mortality rate), activity level: D or higher

CCS(=O)(=O)n1c(-n2cc(CCc3ccc(OC)cc3)c(C(F)(F)F)n2)nc2ccccc21 [Compound 2-6]
acaricidal efficacy (corrected mortality rate), activity level: D or higher

CCCCCCC#Cc1cnn(-c2nc3ccccc3n2S(=O)(=O)CC)c1 [Compound 2-7]
acaricidal efficacy (corrected mortality rate), activity level: D or higher

CCS(=O)(=O)n1c(-n2cc(C#Cc3ccc(F)cc3)c(C(F)(F)F)n2)nc2ccccc21 [Compound 2-9]
acaricidal efficacy (corrected mortality rate), activity level: D or higher

CCS(=O)(=O)n1c(-n2cc(Br)c(C(F)(F)F)n2)nc2ccccc21 [Compound 2-14]
acaricidal efficacy (corrected mortality rate), activity level: D or higher

CCS(=O)(=O)n1c(-n2cc(I)c(C(F)(F)F)n2)nc2ccccc21 [Compound 2-16]
acaricidal efficacy (corrected mortality rate), activity level: D or higher

CCS(=O)(=O)n1c(-n2nc(C(F)(F)F)c(Br)c2C)nc2ccccc21 [Compound 2-18]
acaricidal efficacy (corrected mortality rate), activity level: D or higher

CCS(=O)(=O)n1c(-n2cc(Cc3ccccc3)c(C(F)(F)F)n2)nc2ccccc21 [Compound 2-22]
acaricidal efficacy (corrected mortality rate), activity level: D or higher

CCS(=O)(=O)n1c(-n2cc(C(C)=O)c(C(F)(F)F)n2)nc2ccccc21 [Compound 2-25]
acaricidal efficacy (corrected mortality rate), activity level: D or higher

CCS(=O)(=O)n1c(-n2cc(C(=O)N(C)OC)c(C(F)(F)F)n2)nc2ccccc21 [Compound 2-30]
acaricidal efficacy (corrected mortality rate), activity level: D or higher

CCS(=O)(=O)n1c(-n2cc(C(=O)SC(C)(C)C)c(C(F)(F)F)n2)nc2ccccc21 [Compound 2-31]
acaricidal efficacy (corrected mortality rate), activity level: D or higher

CCOC(=O)c1cn(-c2nc3ccccc3n2S(=O)(=O)CC)nc1C(F)F [Compound 2-33]
acaricidal efficacy (corrected mortality rate), activity level: D or higher

CCS(=O)(=O)n1c(-n2cc(I)c(Br)n2)nc2ccccc21 [Compound 2-35]
acaricidal efficacy (corrected mortality rate), activity level: D or higher

CCOC(=O)/C=C/c1ccn(-c2nc3ccccc3n2S(=O)(=O)CC)n1 [Compound 2-36]
acaricidal efficacy (corrected mortality rate), activity level: D or higher

CCCCOc1nn(-c2nc3ccccc3n2S(=O)(=O)CC)cc1Br [Compound 2-37]
acaricidal efficacy (corrected mortality rate), activity level: D or higher

CCOC(=O)c1cn(-c2nc3ccccc3n2S(=O)(=O)CC)nc1OCC(F)(F)C(F)(F)F [Compound 2-41]
acaricidal efficacy (corrected mortality rate), activity level: D or higher

CCS(=O)(=O)n1c(-n2cc(Br)c(OC(F)F)n2)nc2ccccc21 [Compound 2-42]
acaricidal efficacy (corrected mortality rate), activity level: D or higher

CCS(=O)(=O)n1c(-n2cc(Cl)c(C(=O)OC(C)(C)C)n2)nc2ccccc21 [Compound 2-44]
acaricidal efficacy (corrected mortality rate), activity level: D or higher

CCS(=O)(=O)n1c(-n2cc(Br)c(C(=O)OC(C)(C)C)n2)nc2ccccc21 [Compound 2-45]
acaricidal efficacy (corrected mortality rate), activity level: D or higher

CCS(=O)(=O)n1c(-n2cc(C(=O)OC(C)(C)C)c(Cl)n2)nc2ccccc21 [Compound 2-47]
acaricidal efficacy (corrected mortality rate), activity level: D or higher

CCS(=O)(=O)n1c(-n2cc(C(=O)OC(C)(C)C)c(Br)n2)nc2ccccc21 [Compound 2-48]
acaricidal efficacy (corrected mortality rate), activity level: D or higher

CCS(=O)(=O)n1c(-n2cc(C(=O)OC(C)(C)C)c(C3CC3)n2)nc2ccccc21 [Compound 2-50]
acaricidal efficacy (corrected mortality rate), activity level: D or higher

CCS(=O)(=O)n1c(-n2cc(C(=O)OC(C)(C)C)c(OCC(F)(F)C(F)(F)F)n2)nc2ccccc21 [Compound 2-52]
acaricidal efficacy (corrected mortality rate), activity level: D or higher

CCS(=O)(=O)n1c(-n2cc([S+]([O-])C(C)C)c(C(F)(F)F)n2)nc2ccccc21 (stereo not shown) [Compound 2-55]
acaricidal efficacy (corrected mortality rate), activity level: D or higher

CCS(=O)(=O)n1c(-n2cc(S(=O)(=O)C(C)C)c(C(F)(F)F)n2)nc2ccccc21 [Compound 2-56]
acaricidal efficacy (corrected mortality rate), activity level: D or higher

CCS(=O)(=O)n1c(-n2cc(C(=O)OC(C)(C)C)c(C(C)C)n2)nc2ccccc21 [Compound 2-57]
acaricidal efficacy (corrected mortality rate), activity level: D or higher

CCS(=O)(=O)n1c(-n2cc(C(=O)OC(C)(C)C)c(C(C)(C)C)n2)nc2ccccc21 [Compound 2-58]
acaricidal efficacy (corrected mortality rate), activity level: D or higher

CCS(=O)(=O)n1c(-n2cc(C(=O)c3ccccc3)c(C(F)(F)F)n2)nc2ccccc21 [Compound 2-59]
acaricidal efficacy (corrected mortality rate), activity level: D or higher

CCS(=O)(=O)n1c(-n2cc(CCC(=O)OC(C)(C)C)c(C(F)(F)F)n2)nc2ccccc21 [Compound 2-61]
acaricidal efficacy (corrected mortality rate), activity level: D or higher
